Tested on: Listeria innocua 33090
Assay: colony overlay assay of peptide-secreting E. coli clones (library screening and re-test)
Assay type: cell-based
Parameters: key: higher activity group (H); equal activity group (E); lower activity group (L)
Conditions: library screening; selected colonies pooled by zone size; peptides identified by 454 sequencing, full-length sequences with minimum 20 reads
Experimental: For the in vivo production of AMPs, we have employed an E. coli expression system that relies on periplasmic-expression of recombinant peptides in a host cell that lacks the lpo membrane protein, thus releasing the peptides present in the periplasmic space outside the cells. When the producer cells are grown into colonies on a solid substrate, it leads to accumulation of the recombinant peptides around the colony and allows for easy library screening. The screening assay used in this study was a modified version of the standard agar diffusion method as previously described. Library-transformed E. coli colonies are overlaid with a tester strain and incubated overnight to allow for peptide expression and tester strain growth. Next day, the plates are inspected for the formation of clear growth inhibition zones around E. coli colonies, which is an indication of active AMP production by the host colony.
For the construction of Pln-423 mutant library in E. coli, the expression system that consists of a periplasmic-leaky E. coli strain JE5505 and the expression plasmid pFLAG-CTS was employed for direct screening of peptide activities. It should be noted here that this plasmid contains ompA secretion signal sequence and cleavage of this sequence results in a serine residue at the N-terminal of all mature peptides. A total of 1.0×10^5 colonies, approximately 8-fold coverage of the library, were screened against Listeria innocua 33090 in five separate screening experiments. L. innocua was previously deemed as a suitable indicator for pathogenic L. monocytogenes displaying similar bacteriocin sensitivity, therefore it was used as a surrogate strain throughout this study. The selection process involved two criteria; 1) the size of the each inhibition zone was compared to that of wild-type Pln-423 as a correlation to anti-listerial activity level, 2) when several colonies formed inhibition zones that are very similar in size and character, only a few from each group were selected. The colonies were pooled into three groups based on their activities, giving 43 clones in a higher activity group (H), 81 clones in an equal activity group (E), and 241 clones in a lower activity group (L). Their plasmids were extracted from each activity group and analyzed by both Sanger and 454 high-throughput sequencing to identify peptide sequences.
These clones were also re-tested by colony overlay assay to compare their activities to wild-type Pln-423 based on the size of the inhibition zone around each clone (Figure 2-A). Based on this assay, all ten plantaricin mutants formed larger inhibition zones (10.3±0.5 to 11.4±0.3 mm zone diameter) compared to wild-type Pln-423 (6.2±0.2 mm) against L. innocua 33090. Out of those ten, three clones have a single mutation and […] clones have two mutations and the remaining single clone has three mutations. […] Positions like Ser23, Ser27, His28, and Lys36 were commonly mutated with similar amino acids indicating their potential role on higher peptide activity.
The screening method used in this study was a modified version of the standard colony overlay method as previously described. All the chemicals and growth media supplements were obtained from either Sigma-Aldrich or Fisher Scientific unless otherwise stated. Transformed E. coli JE5505 cells were diluted to 3000–5000 cfu (determined empirically prior to screening by plating serial dilutions of E. coli suspensions of a known absorbance and counting the colonies after incubation) in 25 ml LB soft agar (0.8%, 45°C) per screening plate and poured into 150 mm petri dishes. Once the media was solidified, they were overlaid with 10 ml LB soft agar (45°C) and incubated at 37°C for 24 h for host-colony formation. Next day, these plates were re-overlaid with 10 ml TSB soft agar containing 1 mM IPTG and the indicator strain Listeria innocua ATCC 33090 (diluted to OD600 = 0.03). […]

Row | Substance | activity group by size of inhibition zone compared to wild-type Pln-423
1 | KNYGNGVTCGKHSCSVNWGQAFSCSVEHLANFGHAKC* [GROUP E-UM-10] | E
2 | KYYGNGVTCDKHSCSVNWGQAFKCSVDHLANFGHGKC* [GROUP H-UM-4] | H
3 | KYYGNGVTCGKHSCRVNWAQAFSCTVSHLANFGHGKC* [GROUP L-UM-2] | L
4 | KYYGNGVTCGKHSCSVNAGQAFSCAVSHLANFGHGKC* [Pep-2_497] | E
5 | KYYGNGVTCGKHSCSVNWAQAFSCNVSHLANFGHGKC* [Pep-2_4793] | L
6 | KYYGNGVTCGKHSCSVNWAQAFSCSVSHLANFGHGHC* [Pep-2_1213] | L and E
7 | KYYGNGVTCGKHSCSVNWAQAFSCSVSHLANFGHGLC* [Pep-2_12029] | L
8 | KYYGNGVTCGKHSCSVNWAQAFSCSVVHLANFGHGKC* [Pep-2_6197] | L
9 | KYYGNGVTCGKHSCSVNWAQALSCSVSHLANFGHGKC* [Pep-2_1132] | L
10 | KYYGNGVTCGKHSCSVNWAQGFSCSVSHLANFGHGKC* [Pep-2_1127] | L
11 | KYYGNGVTCGKHSCSVNWGAAFSCAVSHLANFGHGKC* [Pep-2_5015] | L
12 | KYYGNGVTCGKHSCSVNWGDAFSCSVAHLANFGHGKC* [Pep-2_1487] | L
13 | KYYGNGVTCGKHSCSVNWGEAFSCAVSHLANFGHGKC* [Pep-2_5012] | E
14 | KYYGNGVTCGKHSCSVNWGEAFSCSVHHLANFGHGKC* [Pep-2_5876] | E
15 | KYYGNGVTCGKHSCSVNWGEAFSCSVSHLANYGHGKC* [GROUP E-UM-2] | E
16 | KYYGNGVTCGKHSCSVNWGEAFVCSVSHLANFGHGKC* [Pep-2_3608] | E
17 | KYYGNGVTCGKHSCSVNWGGAFSCSVSHLANFGHGWC* [Pep-2_12251] | L
18 | KYYGNGVTCGKHSCSVNWGGALSCSVSHLANFGHGKC* [Pep-2_1780] | L
19 | KYYGNGVTCGKHSCSVNWGHAFSCSVSHLANFGHGHC* [Pep-2_11707] | L
20 | KYYGNGVTCGKHSCSVNWGKAFSCGVSHLANFGHGKC* [Pep-2_1367] | L
21 | KYYGNGVTCGKHSCSVNWGKAFSCSVSMLANFGHGKC* [Pep-2_1384] | L

Row | Substance | activity group by size of inhibition zone compared to wild-type Pln-423
22 | KYYGNGVTCGKHSCSVNWGLAFSCSVSNLANFGHGKC* [Pep-2_6742] | L
23 | KYYGNGVTCGKHSCSVNWGPAFSCSVSRLANFGHGKC* [Pep-2_6528] | L
24 | KYYGNGVTCGKHSCSVNWGQACSCSVSHLANFGHGKC* [Pep-1_30] | L
25 | KYYGNGVTCGKHSCSVNWGQAFACSVSHLANFGFGKC* [GROUP L-UM-23] | L
26 | KYYGNGVTCGKHSCSVNWGQAFACSVSHLANFGHGFC* [Pep-2_3808] | L and E
27 | KYYGNGVTCGKHSCSVNWGQAFACSVSHLANFGHGHC* [Pep-2_11729] | L
28 | KYYGNGVTCGKHSCSVNWGQAFACSVSHLANFGHGKC* [Pep-1_35] | E
29 | KYYGNGVTCGKHSCSVNWGQAFACSVSHLANFGHGWC* [Pep-2_12269] | L
30 | KYYGNGVTCGKHSCSVNWGQAFCCSVSHLANFGHGKC* [GROUP L-UM-17] | L
31 | KYYGNGVTCGKHSCSVNWGQAFCCSVSHLANFGHGSC* [Pep-2_11946] | L
32 | KYYGNGVTCGKHSCSVNWGQAFDCSVSHLANFGHGKC* [GROUP E-UM-1] | E
33 | KYYGNGVTCGKHSCSVNWGQAFDCSVSHLANFGHGKC* [GROUP H-UM-1] | H
34 | KYYGNGVTCGKHSCSVNWGQAFDCSVSHLANFGHGKC* [GROUP L-UM-4] | L
35 | KYYGNGVTCGKHSCSVNWGQAFECRVSHLANFGHGKC* [Pep-2_3415] | L and H
36 | KYYGNGVTCGKHSCSVNWGQAFECSVDHLANFGHGKC* [Pep-2_3428] | E
37 | KYYGNGVTCGKHSCSVNWGQAFECSVSHIANFGHGKC* [Pep-2_3442] | E and H
38 | KYYGNGVTCGKHSCSVNWGQAFECSVSHLANFGHGKC* [Pep-1_32] | L and H
39 | KYYGNGVTCGKHSCSVNWGQAFECSVSHLANFGHNKC* [Pep-2_3477] | L
40 | KYYGNGVTCGKHSCSVNWGQAFECSVSHLANFGMGKC* [Pep-2_10754] | E
41 | KYYGNGVTCGKHSCSVNWGQAFECSVSHLATFGHGKC* [Pep-2_3453] | E
42 | KYYGNGVTCGKHSCSVNWGQAFECSVSRLANFGHGKC* [Pep-2_3433] | E

Row | Substance | activity group by size of inhibition zone compared to wild-type Pln-423
43 | KYYGNGVTCGKHSCSVNWGQAFECSVSWLANFGHGKC* [Pep-2_3438] | L
44 | KYYGNGVTCGKHSCSVNWGQAFKCSVIHLANFGHGKC* [Pep-2_3322] | L
45 | KYYGNGVTCGKHSCSVNWGQAFKCSVSLLANFGHGKC* [Pep-2_3328] | L
46 | KYYGNGVTCGKHSCSVNWGQAFMCSLSHLANFGHGKC* [GROUP L-UM-7] | L
47 | KYYGNGVTCGKHSCSVNWGQAFMCSVEHLANFGHGKC* [Pep-2_6004] | L
48 | KYYGNGVTCGKHSCSVNWGQAFNCSVENLANFGHGKC* [GROUP H-UM-3] | H
49 | KYYGNGVTCGKHSCSVNWGQAFSCAFSHLANFGHGKC* [Pep-2_5044] | L
50 | KYYGNGVTCGKHSCSVNWGQAFSCAVSALANFGHGKC* [Pep-2_5057] | L
51 | KYYGNGVTCGKHSCSVNWGQAFSCAVSHLANFGHGKC* [Pep-1_47] | L
52 | KYYGNGVTCGKHSCSVNWGQAFSCAVSHLANFGHHKC* [Pep-2_5095] | L
53 | KYYGNGVTCGKHSCSVNWGQAFSCAVSHLANFGVGKC* [Pep-2_5092] | L
54 | KYYGNGVTCGKHSCSVNWGQAFSCAVSRLANFGHGKC* [Pep-2_5053] | L
55 | KYYGNGVTCGKHSCSVNWGQAFSCCVSHLANFGHGKC* [GROUP L-UM-1] | L
56 | KYYGNGVTCGKHSCSVNWGQAFSCFVSRLANFGHGKC* [Pep-2_6556] | L
57 | KYYGNGVTCGKHSCSVNWGQAFSCGVSHLANFGHGKC* [GROUP E-UM-7] | E
58 | KYYGNGVTCGKHSCSVNWGQAFSCGVSHLANMGHGKC* [Pep-2_9473] | H
59 | KYYGNGVTCGKHSCSVNWGQAFSCHVDHLANFGHGKC* [Pep-2_4616] | E
60 | KYYGNGVTCGKHSCSVNWGQAFSCHVSHLANFGHGKC* [Pep-1_43] | L
61 | KYYGNGVTCGKHSCSVNWGQAFSCHVSTLANFGHGKC* [Pep-2_4623] | L
